The values that follow come from ChEMBL document CHEMBL4393714, “Multi-targeting protein-protein interaction inhibitors: Evolution of macrocyclic ligands with embedded carbohydrates (MECs) to improve selectivity” (Eur J Med Chem, 2019).

For experiment [1], the target named is 5-hydroxytryptamine receptor 1B (Homo sapiens) (UniProt P28222). Nature of the experiment: Displacement of [3H] GR125743 from human recombinant 5-HT1B receptor at 10 uM measured after 60 mins by scintillation counter method relative to control. On the technique in general: Loss of bound radioactivity is the signal in a displacement assay; it reports binding, not function.

Experiment [2] addresses Substance-K receptor (Homo sapiens) (UniProt P21452). Nature of the experiment: Displacement of [125I]NKA from human recombinant NK2 receptor at 10 uM measured after 60 mins by scintillation counter method relative to control.
Experiment [3] concerns the target Histamine H1 receptor (Homo sapiens) (UniProt P35367). Nature of the experiment: Displacement of [3H]pyrilamine from human recombinant H1 receptor at 10 uM measured after 60 mins by scintillation counter method relative to control.
The species entered for a further experiment is Rattus norvegicus. Nature of the experiment: Displacement of [3H]flunitrazepam from rat GABAA Central-type benzodiazepine receptor at 10 uM measured after 120 mins by scintillation counter method relative to control.
Experiment [4] deals with Neuropeptide Y receptor type 1 (Homo sapiens) (UniProt P25929). Nature of the experiment: Displacement of [125I] peptide YY from human neuropeptide Y1 receptor at 10 uM measured after 120 mins by scintillation counter method relative to control.
Experiment [5] has as its target Adrenergic receptor alpha-1 (Rattus norvegicus) (UniProt P15823+P23944+P43140). Nature of the experiment: Displacement of [3H] prazosin from rat alpha1 adreno receptor at 10 uM measured after 60 mins by scintillation counter method relative to control. The experiment is classed as protein assay.
Experiment [6] concerns the target Cannabinoid receptor 1 (Homo sapiens) (UniProt P21554). Nature of the experiment: Displacement of [3H]CP 55940 from human recombinant CB1 receptor at 10 uM measured after 120 mins by scintillation counter method relative to control.
For experiment [7], the target named is Delta-type opioid receptor (Homo sapiens) (UniProt P41143). Nature of the experiment: Displacement of [3H] DADLE from human delta opioid receptor at 10 uM measured after 60 mins by scintillation counter method relative to control.
Experiment [8] concerns the target C-C chemokine receptor type 1 (Homo sapiens) (UniProt P32246). Nature of the experiment: Displacement of [125I]MIP1-alpha from human recombinant CCR1 receptor at 10 uM measured after 120 mins by scintillation counter method relative to control.
For experiment [9], the target named is 5-hydroxytryptamine receptor 2B (Homo sapiens, UniProt P41595). Nature of the experiment: Antagonist activity at human recombinant 5-HT2B receptor in CHOK1 cells measured after 30 mins by HTRF assay. The format is cell-based.
The target in experiment [10] is Small conductance calcium-activated potassium channel (Rattus norvegicus) (UniProt P70604+P70606+P70605). Nature of the experiment: Displacement of [125I]apamin from rat brain SKCa at 10 uM measured after 60 mins by scintillation counter method relative to control.
In experiment [11] the target is Muscarinic acetylcholine receptor M3 (Homo sapiens) (UniProt P20309). Nature of the experiment: Displacement of [3H]4-DAMP from human recombinant muscarinic 3 receptor at 10 uM measured after 60 mins by scintillation counter method relative to control.

The structures appear in SMILES notation. pIC50, pKi: −log10 of the molar value.

Chain of 5-hydroxytryptamine receptor 2B (P41595 whole entry): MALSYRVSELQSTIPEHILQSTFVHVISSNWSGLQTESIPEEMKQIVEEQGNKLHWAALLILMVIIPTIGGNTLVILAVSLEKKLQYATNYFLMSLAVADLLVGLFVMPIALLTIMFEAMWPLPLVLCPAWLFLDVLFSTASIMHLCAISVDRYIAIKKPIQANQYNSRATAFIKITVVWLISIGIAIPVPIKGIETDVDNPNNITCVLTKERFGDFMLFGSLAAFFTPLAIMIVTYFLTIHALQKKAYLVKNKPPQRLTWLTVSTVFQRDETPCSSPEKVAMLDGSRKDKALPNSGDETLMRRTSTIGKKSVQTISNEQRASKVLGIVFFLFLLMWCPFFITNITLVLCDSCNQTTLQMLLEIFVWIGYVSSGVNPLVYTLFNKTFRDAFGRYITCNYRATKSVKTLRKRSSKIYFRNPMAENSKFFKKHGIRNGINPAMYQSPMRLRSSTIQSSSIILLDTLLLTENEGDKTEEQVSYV
Chain of C-C chemokine receptor type 1 (Homo sapiens) (P32246 whole entry): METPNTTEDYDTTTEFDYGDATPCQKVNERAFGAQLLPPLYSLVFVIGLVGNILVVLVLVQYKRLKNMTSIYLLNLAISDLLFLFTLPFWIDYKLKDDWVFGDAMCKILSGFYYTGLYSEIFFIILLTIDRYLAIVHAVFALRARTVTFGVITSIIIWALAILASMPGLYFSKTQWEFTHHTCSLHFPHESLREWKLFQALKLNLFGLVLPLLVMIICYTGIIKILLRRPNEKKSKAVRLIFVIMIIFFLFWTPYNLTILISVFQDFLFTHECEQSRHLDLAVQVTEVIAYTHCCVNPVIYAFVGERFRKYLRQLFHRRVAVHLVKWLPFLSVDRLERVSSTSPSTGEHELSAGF
Chain of Neuropeptide Y receptor type 1 (Homo sapiens) (P25929 whole entry): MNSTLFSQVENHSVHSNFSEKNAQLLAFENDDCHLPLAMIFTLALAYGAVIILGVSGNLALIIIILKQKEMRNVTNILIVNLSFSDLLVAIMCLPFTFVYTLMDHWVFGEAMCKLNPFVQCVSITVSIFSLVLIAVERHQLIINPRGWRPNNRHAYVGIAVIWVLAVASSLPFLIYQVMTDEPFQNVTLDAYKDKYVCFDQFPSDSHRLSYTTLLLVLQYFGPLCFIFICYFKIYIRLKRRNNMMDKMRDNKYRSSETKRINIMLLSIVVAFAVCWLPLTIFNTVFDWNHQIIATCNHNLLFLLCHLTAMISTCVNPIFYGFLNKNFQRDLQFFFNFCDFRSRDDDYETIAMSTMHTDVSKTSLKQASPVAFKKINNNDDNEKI
Chain of Substance-K receptor (Homo sapiens) (P21452 whole entry): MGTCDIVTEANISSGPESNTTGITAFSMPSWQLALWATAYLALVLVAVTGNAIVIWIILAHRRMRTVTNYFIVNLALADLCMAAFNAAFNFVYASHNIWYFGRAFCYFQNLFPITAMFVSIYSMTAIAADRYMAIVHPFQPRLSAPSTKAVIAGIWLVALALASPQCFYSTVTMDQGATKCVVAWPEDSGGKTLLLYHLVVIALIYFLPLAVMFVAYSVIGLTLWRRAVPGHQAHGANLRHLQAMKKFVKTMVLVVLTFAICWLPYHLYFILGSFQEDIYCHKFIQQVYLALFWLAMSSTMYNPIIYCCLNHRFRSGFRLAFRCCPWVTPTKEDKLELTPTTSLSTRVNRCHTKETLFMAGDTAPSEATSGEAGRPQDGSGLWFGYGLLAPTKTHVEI
Chain of Cannabinoid receptor 1 (Homo sapiens) (P21554 whole entry): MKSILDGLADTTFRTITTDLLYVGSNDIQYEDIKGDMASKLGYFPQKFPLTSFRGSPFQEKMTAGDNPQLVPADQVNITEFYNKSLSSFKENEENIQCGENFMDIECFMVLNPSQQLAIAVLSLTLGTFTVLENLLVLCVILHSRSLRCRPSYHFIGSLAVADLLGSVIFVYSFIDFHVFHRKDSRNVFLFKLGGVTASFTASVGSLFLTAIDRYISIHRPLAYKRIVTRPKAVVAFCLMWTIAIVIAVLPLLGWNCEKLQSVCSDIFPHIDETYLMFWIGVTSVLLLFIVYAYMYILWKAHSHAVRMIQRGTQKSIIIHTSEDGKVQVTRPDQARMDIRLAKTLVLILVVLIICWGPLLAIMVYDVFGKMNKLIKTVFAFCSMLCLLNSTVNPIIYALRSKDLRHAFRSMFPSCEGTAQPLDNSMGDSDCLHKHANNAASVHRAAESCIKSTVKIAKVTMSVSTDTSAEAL
Chain of Muscarinic acetylcholine receptor M3 (Homo sapiens) (P20309 whole entry, looked up): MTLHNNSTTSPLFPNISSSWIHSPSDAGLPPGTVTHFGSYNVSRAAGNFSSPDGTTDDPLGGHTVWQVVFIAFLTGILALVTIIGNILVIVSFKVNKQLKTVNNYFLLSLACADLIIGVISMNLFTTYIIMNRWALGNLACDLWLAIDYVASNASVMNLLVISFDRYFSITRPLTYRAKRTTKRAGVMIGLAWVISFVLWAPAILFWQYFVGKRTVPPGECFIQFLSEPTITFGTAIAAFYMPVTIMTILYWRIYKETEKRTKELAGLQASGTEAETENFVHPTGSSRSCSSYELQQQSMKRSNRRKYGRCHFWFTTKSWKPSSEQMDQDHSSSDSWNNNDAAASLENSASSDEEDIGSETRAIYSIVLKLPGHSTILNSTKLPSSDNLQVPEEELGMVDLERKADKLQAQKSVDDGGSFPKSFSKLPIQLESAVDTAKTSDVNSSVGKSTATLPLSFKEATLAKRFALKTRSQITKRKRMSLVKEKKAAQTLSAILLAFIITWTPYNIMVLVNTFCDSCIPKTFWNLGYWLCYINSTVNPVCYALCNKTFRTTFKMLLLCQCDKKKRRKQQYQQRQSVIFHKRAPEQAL
Chain of Histamine H1 receptor (Homo sapiens) (P35367 whole entry): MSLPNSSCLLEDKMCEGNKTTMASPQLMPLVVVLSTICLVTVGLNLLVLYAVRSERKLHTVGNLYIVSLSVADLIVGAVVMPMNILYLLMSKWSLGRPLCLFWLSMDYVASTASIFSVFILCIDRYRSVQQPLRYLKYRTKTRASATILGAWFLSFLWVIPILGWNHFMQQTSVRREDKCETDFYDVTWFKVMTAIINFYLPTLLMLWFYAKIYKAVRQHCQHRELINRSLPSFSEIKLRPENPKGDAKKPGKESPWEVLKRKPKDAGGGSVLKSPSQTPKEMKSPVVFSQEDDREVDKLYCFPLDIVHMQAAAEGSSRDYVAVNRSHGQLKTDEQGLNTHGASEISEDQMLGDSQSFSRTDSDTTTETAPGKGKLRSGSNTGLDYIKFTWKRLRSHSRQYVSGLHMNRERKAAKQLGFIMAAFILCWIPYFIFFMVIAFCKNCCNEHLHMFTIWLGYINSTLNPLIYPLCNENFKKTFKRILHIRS
Chain of 5-hydroxytryptamine receptor 1B (Homo sapiens) (P28222 whole entry): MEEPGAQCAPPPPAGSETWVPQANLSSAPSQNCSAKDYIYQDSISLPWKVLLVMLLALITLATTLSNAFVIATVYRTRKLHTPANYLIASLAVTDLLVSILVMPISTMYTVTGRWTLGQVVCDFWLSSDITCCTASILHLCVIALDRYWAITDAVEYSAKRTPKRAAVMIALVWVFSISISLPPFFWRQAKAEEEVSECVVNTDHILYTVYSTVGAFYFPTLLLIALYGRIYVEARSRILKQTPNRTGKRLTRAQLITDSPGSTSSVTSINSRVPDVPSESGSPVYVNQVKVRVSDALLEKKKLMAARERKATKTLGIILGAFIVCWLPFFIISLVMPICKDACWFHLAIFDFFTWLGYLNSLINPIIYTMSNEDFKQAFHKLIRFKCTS
Chain of Delta-type opioid receptor (Homo sapiens) (P41143 whole entry): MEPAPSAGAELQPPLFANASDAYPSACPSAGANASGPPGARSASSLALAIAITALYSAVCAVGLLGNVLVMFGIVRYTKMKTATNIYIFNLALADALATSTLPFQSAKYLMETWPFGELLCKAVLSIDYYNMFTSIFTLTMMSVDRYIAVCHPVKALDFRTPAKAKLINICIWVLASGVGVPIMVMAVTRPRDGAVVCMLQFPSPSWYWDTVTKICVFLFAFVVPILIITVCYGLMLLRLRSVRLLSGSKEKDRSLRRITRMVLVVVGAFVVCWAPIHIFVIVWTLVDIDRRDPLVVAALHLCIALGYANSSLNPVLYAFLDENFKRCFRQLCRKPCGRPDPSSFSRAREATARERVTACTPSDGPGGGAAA

Usually inhibition stands for the relative decrease from the control value, in per cent. In general, pIC50 refers to the negative decadic logarithm of the IC50, by convention in mol/L. By pKi is commonly meant −log10 of the Ki, conventionally taken in molar units. In the case of `CC(C)CCO[C@@H]1[C@H]2OC(C)(C)O[C@H]2[C@H]2Cn3cc(nn3)COCCCCCCN(CCc3ccc4ccccc4c3)CC[C@H]1O2`, the inhibition in experiment [1] stood at 19%; in [2], 98.2%; in [3] it was 60.5%; in [5] it was 57.7%; in experiment [6], 33.8%; in experiment [7] it was 83.4%. The inhibition in [8] is 35.2%; in experiment [10], 1.4%; in [11], 41.2%. Also, the Activity in the experiment filed under Rattus norvegicus was 3.7%; in [4], 3.3%. The pIC50 in [9] was 5.80. In addition, the pKi in experiment [9] is 6.06.
